Data published in patent EP3388439A1, “BIOTIN-CONJUGATED N-ACETYL GLYCOL SPLIT HEPARIN” (Leadiant Biosciences SA, priority 2017, dated 2018).

Tests used:
heparanase = molecular target: T1, heparanase (Homo sapiens, UniProt Q9Y251); test: Fondaparinux heparanase assay (AGA*IA assay), colorimetric WST-1; format: biochemical; details: 2.5 nM heparanase, 100 µM fondaparinux, pH 5.0, 3 h at 37°C
T1 sequence (Q9Y251 158-543 limits assumed): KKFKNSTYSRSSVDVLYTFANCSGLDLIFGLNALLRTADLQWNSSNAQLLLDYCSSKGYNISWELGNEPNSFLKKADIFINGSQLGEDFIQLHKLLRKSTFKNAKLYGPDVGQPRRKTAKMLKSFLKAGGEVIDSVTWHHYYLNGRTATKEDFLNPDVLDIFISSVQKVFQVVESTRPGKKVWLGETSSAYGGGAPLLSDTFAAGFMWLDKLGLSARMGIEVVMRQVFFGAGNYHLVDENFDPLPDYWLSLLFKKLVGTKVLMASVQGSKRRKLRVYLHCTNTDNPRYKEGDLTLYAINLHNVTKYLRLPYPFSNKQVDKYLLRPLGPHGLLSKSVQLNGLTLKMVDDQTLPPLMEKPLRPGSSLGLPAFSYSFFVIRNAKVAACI
T1 sequence (Q9Y251 36-109 limits assumed): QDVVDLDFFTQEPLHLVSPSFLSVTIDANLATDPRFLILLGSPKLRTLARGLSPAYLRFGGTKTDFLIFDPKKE
Procedure: In order to determinate their activity as potent heparanase inhibitor, compounds were tested in a simple, accurate and robust microplate assay based on the cleavage of the synthetic heparin fragment, the pentasaccharide Fondaparinux (AGA*IA). This assay was originally developed by Hammond and coworkers [Hammond E, Li CP, Ferro V. Development of a colorimetric assay for heparanase activity suitable for kinetic analysis and inhibitor screening. Anal. Biochem. 2010, 396(1), 112-116], where Fondaparinux corresponds to the methyl glycoside of the antithrombin III (ATIII)-activating pentasaccharide sequence of heparin. Fondaparinux is cleaved by heparanase to generate a reducing disaccharide, which can be quantitatively measured via a colorimetric or a fluorescence assay, the last by the fluorescent sensor polymer-H [Schiemann S, Lühn S, Alban S. Development of both colorimetric and fluorescence heparinase activity assays using fondaparinux as substrate. […]
Assay was carried out with 100 µl/well of assay solution containing 40 mM sodium acetate buffer (pH 5.0), 100 µM fondaparinux, 2.5 nM heparanase and serial dilutions of test compounds (tested in triplicate). […] Then, the absorbance at 560 nm was measured through a microplate reader (Victor 3, Perkin Elmer).
Finally, the measurements were corrected by subtracting both the reagent background and the inner absorbance value of test compound. […]

[1] = system: HT1080 (human fibrosarcoma); test: SRB Cell Cytotoxicity Assay; format: cell-based; details: 72h
Excerpt: (§1) SRB Cell Cytotoxicity Assay is based on the quantitative staining of cellular proteins by sulforhodamine B (SRB). This assay can be used for high-throughput drug screening (Vichai & Kirkitara, Nature Protocol. 2006, 1, 112). Sulforhodamine B is an anionic aminoxanthene dye that forms an electrostatic complex with the basic amino acid residues of proteins under moderately acid conditions, which provides a sensitive linear response.
(§2) To assess a putative antiproliferative activity of the selected compounds, HT1080 (human fibrosarcoma), U87MG (human glioblastoma astrocytoma) and U2OS (human osteosarcoma) cell lines were treated for 72h, in triplicate, with increasing concentrations of heparanase inhibitors. Inhibition of cell proliferation was then measured by the classical colorimetric SRB Cell Cytotoxicity assay. Absorbance was measured by spectrophotometer at a wavelength of 510 nm and cell proliferation was determined as percent with respect to control cells (cells treated with the vehicle alone). EC50 values were then determined by GraphPad Prism.
(§3) Results are summarized in the following Table 3, reporting the ability of anti-heparanase agents (test compounds) to reduce tumor growth (cytotoxic effect) on three tumor cell lines, evaluated at three concentrations. Results were expressed as a percentage of growth versus control.

[2] = system: U2OS (human osteosarcoma); test: SRB Cell Cytotoxicity Assay; format: cell-based; details: 72h
Excerpt: as §1, §2, §3

[3] = system: U87MG (human glioblastoma astrocytoma); test: SRB Cell Cytotoxicity Assay; format: cell-based; details: 72h
Excerpt: as §1, §2, §3

[4] = system: U87MG (human glioblastoma astrocytoma); test: Cell adhesion assay on matrigel coated wells; format: cell-based; details: treated 18-20h
Procedure: Cell surface, non-integrin molecules such as heparan sulfate proteoglycans (HSPGs) may be involved in the regulation of early adhesive stages of cell-ECM interactions. A cell adhesion assay has been employed to determine if the newly designed heparanase inhibitors were able to interfere with adhesion properties of cancer cells.
For the assay set-up, U87MG (human glioblastoma astrocytoma) cells were treated for 18-20h with test compounds, in complete medium supplemented with 10% FCS. Then, cells were collected, washed in complete medium, and added to matrigel coated wells in triplicate, at previously identified optimal seeding density, and incubated at 37 °C in complete medium for times ranging from 15 minutes to 4h (Goldshmidt et al, FASEB, 2003). After incubation, the wells were washed three times with serum-free medium and the remaining firmly attached cells were stained with crystal violet 0.1 reagent. Optical density was measure at 500 nm by Victor 3 (Perkin-Elmer) plate analyzer. Each experiment was repeated three times.

[5] = system: luciferase-labelled CAG myeloma cells; details: NOD/SCID mice, 1000 µg/mouse intraperitoneal twice a day from day 9 to day 29; Figure 2
Procedure: Briefly, luciferase-labelled CAG myeloma cells (5x106; same cells) were injected subcutaneously into NOD/SCID mice (n=5). Mice were treated with compounds (1000 µg/mouse, injected intraperitoneal twice a day, starting on day 9 of cell inoculation).
Mice were injected with cells on day ONE and the first injection of compounds was given starting on day NINE, twice a day, including weekends. Tumor growth was examined by IVIS imaging prior to the first injection of compounds and once a week thereafter. The experiment was terminated on day TWENTYNINE (Figure 2).
IVIS imaging. Bioluminescent imaging of the luciferase-expressing tumors was performed with a highly sensitive, cooled charge coupled device (CCD) camera mounted in a light-tight specimen box (IVIS; Xenogen Corp., Waltham, MA). Briefly, mice were injected intraperitoneally with D-luciferin substrate at 150 mg/kg, anesthetized and placed onto a stage inside the light-tight camera box, with continuous exposure to isoflurane (EZAnesthesia, Palmer, PA). Light emitted from the bioluminescent cells was detected by the IVIS camera system with images quantified for tumor burden using a log-scale color range set at 5×10^4 to 1×10^7 and measurement of total photon counts per second (PPS) using Living Image software (Xenogen).

Substance | IC50 (heparanase) [nM] | Percentage tumor growth versus control HT1080 ([1]; 11.1 µM) | Percentage tumor growth versus control HT1080 ([1]; 33.3 µM) | Percentage tumor growth versus control HT1080 ([1]; 100 µM) [%] | Percentage tumor growth versus control U2OS ([2]; 11.1 µM) [%] | Percentage tumor growth versus control U2OS ([2]; 33.3 µM) [%] | Percentage tumor growth versus control U2OS ([2]; 100 µM) [%] | Percentage tumor growth versus control U87MG ([3]; 11.1 µM) [%] | Percentage tumor growth versus control U87MG ([3]; 33.3 µM) [%] | Percentage tumor growth versus control U87MG ([3]; 100 µM) [%] | Test compounds adhesion versus basal (100%) ([4]; 0.1 µM) [%] | Test compounds adhesion versus basal (100%) ([4]; 1 µM) [%] | Test compounds adhesion versus basal (100%) ([4]; 10 µM) [%] | inhibition of CAG myeloma cell growth [5]
N-desulfated N-acetylated glycol split heparin -(GGGS)3-NH-(CH2)5-NH-Biotin with a substitution degree on the R1 and/or R1' positions of about 7% [SST0761NA1] | ~3 | 99.98% | 98.83% | 75.02 | 85.3 | 79.5 | 69.3 | 84.47 | 75.00 | 73.23 | 57.55 | 13.25 | 21.46 | reached statistical significance
N-desulfated N-acetylated glycol split heparin -Reducing end-NH-CH2-1,2,3-Triazole-4, N-Glycine-CONH-(CH2)5-NH-Biotin with a substitution degree on the R3 position of about 2 % [SST0764NA1] | ~4 | ~ 100% | ~ 100% | 95.15 | 80.70 | 76.00 | 66.90 | 90.61 | 86.29 | 76.44 | 83.21 | 19.82 | 12.79 | –
